Assay results as given in publication PMC9999251, “Pyrazole-based lamellarin O analogues: synthesis, biological evaluation and structure–activity relationships” (RSC Advances, 2023).

Tests used:
[1] = system: SW620/Ad300; design: method as in PMID 24979269; conditions: SW620/Ad300 multi-drug resistant daughter cell line; read-out: IC50 cytotoxicity; cited from earlier work
[2] = system: SW620; design: method as in PMID 24979269; conditions: SW620 colorectal cancer cells; read-out: IC50 cytotoxicity; cited from earlier work
[3] = Determination of HPLC–log P; format: physicochemical; conditions: reversed-phase HPLC on apHera C18 column; methanol / 0.01 M phosphate buffer pH 7.4; mean ± SD
Description: HPLC–log P values were determined using Shimadzu HPLC system equipped with apHera C18 column (10 × 6 mm, 5 μm, Supelco, Bellefonte, PA, USA). Each sample was dissolved in the internal standard mixture, consisting of triphenylene (99.9%, Carl Roth) and toluene (≥98%, Sigma-Aldrich). Analysis was performed at 1.5 mL min^−1 flow rate in the linear gradient where mobile phase consisted of methanol and 0.01 M phosphate buffer (pH 7.4). The HPLC–log P values were calculated from the measured retention times using previously published equation.[57]

[4] = system: SW480 cells; assay: Viability staining via Calcein AM/Hoechst/PI, SW480; format: cell-based, human; conditions: 20 µM, 24 h (Fig. S135 legend), method block: 4 μM, 96 h
Description: (§1) SW480, HT29 and HCT116 cells were seeded in 24-well plates in a cell density of 6000 cells per well and settled for 24 h. […] Cells were stained with propidium iodide (Sigma Aldrich, final concentration 2 μg mL^−1) and Hoechst 33342 (ThermoFisher Scientific, final concentration 0.5 μM) for 60 min and with Calcein AM (Merck, BioReagent, final concentration 50 μM) for 15 min, washed two times with PBS and finally covered with PBS for further analysis. Fluorescence microscopic evaluation was performed on a Evos FL Cell Imaging System (ThermoFisher Scientific).

[5] = system: HCT116 cells; assay: Viability staining via Calcein AM/Hoechst/PI, HCT116; format: cell-based, human; conditions: 20 µM, 24 h (Fig. S134 legend), method block: 4 μM, 96 h
Description: as §1

[6] = system: HT29 cells; assay: Cell viability (MTT assay), HT29; format: cell-based; conditions: Homo sapiens, HT-29, 96 h treatment, read-out: GI50 ± SD HT29
Description: (§2) SW480 (human colon adenocarcinoma, adherent, epithelial, ATCC number: CCL-228), HT29 (human colon adenocarcinoma, adherent, epithelial, ATCC number: HTB-38), and HCT116 (human colon adenocarcinoma, adherent, epithelial-like, ATCC number: CCL-247) cells were maintained in RPMI-1640 medium (Sigma-Aldrich). Medium was supplemented with heat-inactivated FBS (Biowest), penicillin–streptomycin (Sigma; with 10 000 units penicillin and 10 mg streptomycin per mL in 0.9% NaCl) and L-glutamine (Sigma; 200 mM solution). Cell cultures were cultivated at 37 °C, maintaining a humidified atmosphere consisting of 5% CO2. Gibco™ trypsin–EDTA (0.05%) was used for cell passage.
(§3) To evaluate cell viability, SW480, HT29, and HCT116 cells were harvested from culture flasks by trypsinization and seeded into 96-well plates in 4000 cells per well, 3000 cells per well and 4000 cells per well densities, respectively. After 24 h preincubation period, cells were treated in triplicates with nine different doses of each compound (6a–o and 7a–c) for 96 h. After treatment compound solutions were replaced with MTT solution (MTT reagent in PBS, […]) diluted in a 6 : 1 ratio in non-supplemented RPMI-1640 medium and were additionally incubated for 2 h. After incubation, the medium was removed, and formazan product was dissolved in DMSO. Optical densities were measured at 550 nm with TECAN Infinite® M200 PRO microplate reader using a reference wavelength of 690 nm to correct unspecific absorption. The quantity of viable cells was normalized to untreated controls. The GI50 values were calculated from dose–response curves.

[7] = system: HCT116 cells; assay: Cell viability (MTT assay), HCT116; format: cell-based; conditions: Homo sapiens, HCT-116, 96 h treatment, read-out: GI50 ± SD HCT116
Description: as §2, §3

[8] = system: SW480 cells; assay: Cell viability (MTT assay), SW480; format: cell-based; conditions: Homo sapiens, SW480, 96 h, 96 h treatment, read-out: GI50 ± SD SW480
Description: as §2, §3

[9] = molecular target: T1, human serum albumin (Homo sapiens, UniProt P02768); assay: Plasma protein binding (PPB), HPLC on albumin-bound stationary phase; format: in vitro ADME; conditions: pH 7.4, binding to human serum albumin, HPLC method
T1 construct: purchased Chiral Technologies, DAICEL Group, Europe SAS, France CHIRALPAK®HAS (50 × 3 mm, 5 μm)
Description: Retention times of the analytes were measured with Shimadzu HPLC system on the CHIRALPAK®HAS stationary phase (50 × 3 mm, 5 μm, Chiral Technologies, DAICEL Group, Europe SAS, France). The mobile phase A consisted of 50 mM aqueous ammonium acetate buffer (pH 7.4) and phase B of 2-propanol according to Valko et al.[65] Analysis was performed at prolonged 1 mL min^−1 flow rate in the linear gradient. Retention capacity factors (k′) were calculated by using DMSO or a substance with 0% HAS binding for systems' dead time (Rt0). The system was calibrated by injecting the reference compounds: acetylsalicylic acid (CAS 69-72-7), betamethasone (CAS 378-44-9), budesonide (CAS 5133-22-3), carbamazepine (CAS 298-46-4), cimetidine (CAS 51481-61-9), ciprofloxacin (CAS 85721-33-1), indomethacin (CAS 53-86-1), isoniazid (CAS 54-85-3), metronidazole (CAS 443-48-1), nicardipine (CAS 55985-32-5), nizatidine (CAS 76963-41-2) and warfarin (CAS 81-81-2) obtained from Sigma-Aldrich, diclofenac (CAS 15307-86-5) from EMD Chemicals Inc., flumazenil (CAS 78755-81-4) from ABX and ketoprofen (CAS 22071-15-4) from LKT Labs. The logarithmic capacity factors of the references' Rt (log(k′)) on the HSA column were plotted against the %PPB values from literature. The slope and the intercept were used to convert the log(k′) of the compounds (6a, c, f, h, m–o) to %PPB using the regression equation.[66]

[10] = system: HCT116 cells; assay: Cell cycle distribution by flow cytometry (FACS); format: cell-based, human; conditions: HCT116, 72 h, lowest concentration of 5 μM; for G2/M phase: negative control 14.2 ± 1.1%; for G1 phase: negative control 49.5 ± 1.8%
Description: HCT116 cells (40 000 cells per well) were treated with the test compounds (6c, 6m) for 72 h in the concentration range of 5, 10 and 20 μM. After treatment cells were washed with DPBS (Sigma; modified, without calcium chloride and magnesium chloride) and trypsinized using a trypsin–EDTA solution (Gibco™, 0.05%). After additional washing with DPBS, cells were stained at +4 °C overnight using PI/HFS solution (50 μg mL^−1).[67] Samples were then analysed using Guava® easyCyte™ 8HT (Merck Millipore) flow cytometer with Guava Clean 3.1 software. The amount of debris was in the range of 9.2 ± 2.0%.

[11] = system: HT29 cells; assay: Viability staining via Calcein AM/Hoechst/PI, HT29; format: cell-based, human; conditions: 20 µM, 24 h (Fig. S136 legend), method block: 4 μM, 96 h
Description: SW480, HT29 and HCT116 cells were seeded in 24-well plates in a cell density of 6000 cells per well and settled for 24 h. Afterwards cells were treated with 4 μM of test compounds 6a, c, f, h, m–o for 96 h. Cells were stained with propidium iodide (Sigma Aldrich, final concentration 2 μg mL^−1) and Hoechst 33342 (ThermoFisher Scientific, final concentration 0.5 μM) for 60 min and with Calcein AM (Merck, BioReagent, final concentration 50 μM) for 15 min, washed two times with PBS and finally covered with PBS for further analysis. Fluorescence microscopic evaluation was performed on a Evos FL Cell Imaging System (ThermoFisher Scientific).

T1 sequence (P02768 25-609): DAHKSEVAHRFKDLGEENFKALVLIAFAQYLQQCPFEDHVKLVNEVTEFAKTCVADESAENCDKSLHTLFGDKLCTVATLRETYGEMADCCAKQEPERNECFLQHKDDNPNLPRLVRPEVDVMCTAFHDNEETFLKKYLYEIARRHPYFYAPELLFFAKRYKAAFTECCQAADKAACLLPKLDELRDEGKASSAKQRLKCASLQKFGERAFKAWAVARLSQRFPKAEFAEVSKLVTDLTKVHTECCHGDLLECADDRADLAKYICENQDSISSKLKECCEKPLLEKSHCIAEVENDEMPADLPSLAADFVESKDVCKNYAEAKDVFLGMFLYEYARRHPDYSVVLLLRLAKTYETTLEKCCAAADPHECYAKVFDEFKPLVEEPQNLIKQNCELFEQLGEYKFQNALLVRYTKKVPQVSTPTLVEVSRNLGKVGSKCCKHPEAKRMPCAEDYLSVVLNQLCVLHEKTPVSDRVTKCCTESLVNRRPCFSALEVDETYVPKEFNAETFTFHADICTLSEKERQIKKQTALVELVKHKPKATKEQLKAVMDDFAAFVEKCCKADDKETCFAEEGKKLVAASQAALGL

COC(=O)c1c(-c2ccc(O)cc2)c(-c2ccc(O)cc2)cn1CC(=O)c1ccc(OC)cc1 [Lamellarin O]
IC50 [1]: 22.3 µM | IC50 [2]: 20 µM

CCOC(=O)c1c(-c2ccccc2)c(-c2ccc(F)cc2)nn1CC(=O)c1ccc(F)cc1 [Compound 6m, Ethyl 3-(4-fluorophenyl)-1-[2-(4-fluorophenyl)-2-oxoethyl]-4-phenyl-1H-pyrazole-5-carboxylate]
melting point: 104 to 105 °C | chromatographic logP [3]: 4.545 ± 0.006 | PI staining (necrosis) [4]: no involvement of necrosis | PI staining (necrosis) [5]: no involvement of necrosis | GI50 [6]: 2.69 ± 0.11 µM | GI50 [7]: 1.46 ± 0.247 µM | GI50 [8]: 1.44 ± 0.173 µM | fraction unbound [9]: 0.034 | G2/M phase [10]: 26.9 ± 0.8% | G1 phase [10]: 61.0 ± 1.8% | PI staining (necrosis) [11]: no involvement of necrosis

CCOC(=O)c1c(-c2ccccc2)c(-c2ccccc2)nn1CC(=O)c1ccc(F)cc1 [Compound 6c, Ethyl 1-[2-(4-fluorophenyl)-2-oxoethyl]-3,4-diphenyl-1H-pyrazole-5-carboxylate]
melting point: 114 to 115 °C | chromatographic logP [3]: 4.453 ± 0.005 | PI staining (necrosis) [4]: no involvement of necrosis | PI staining (necrosis) [5]: no involvement of necrosis | GI50 [6]: 4.98 ± 2.62 µM | GI50 [7]: 1.96 ± 0.266 µM | GI50 [8]: 5.52 ± 3.72 µM | fraction unbound [9]: 0.04 | G2/M phase [10]: 25.0 ± 0.5% | G1 phase [10]: 63.2 ± 1.4% | PI staining (necrosis) [11]: no involvement of necrosis
